Converted amounts (≈) assume the structure as drawn. Where a name gives a salt, the structure may show the parent alone. Read-outs that look alike come from different tables or passages of the source.
Key:
Assay type in all cases: cell-based
Propionibacterium acnes = assay: Minimum Inhibitory Concentration (MIC), Macrodilution Broth Method, Propionibacterium acnes ATCC strains; settings: Cutibacterium acnes
Source text: (§1) This study, a Minimum Inhibitory Concentration (MIC), will be performed based upon the Macrodilution Broth Method outlined in CLSJ Document M07-A 10, Methods for Dilution Antimicrobial Susceptibility Tests for Bacteria that Gro111 Aerobically, Tenth Edition, and CLSI Document MI I-A8, Methods for Antimicrobial Susceptibility Testing of Anaerobic Bacteria, Eighth Edition.
(§2) The Test Material will be evaluated versus at total of 17 different microorganism strains: 7 strains of Methicillin resistant Staphylococcus aureus, 6 stains of Propionibacterium acnes, 2 strains of Erythromycin resistant Propionibacterium acnes, and 2 strains of Tetracycline resistant Propionibacterium acnes. Positive Control Material #1 will be evaluated versus 2 strains of Erythromycin resistant Propionibacterium acnes. Positive Control Material #2 will be evaluated versus 2 strains of Tetracycline resistant Propionibacterium acnes.
(§3) A suspension of each challenge strain will be prepared and exposed to each of 10 doubling dilutions of the test material or positive control materials prepared in the appropriate nutrient broth (reference Table I). Following incubation, the Minimum Inhibitory Concentration (MIC) of the test material and positive control materials will be determined visually and documented.
(§4) 2 to 6 days prior to testing, sterile tubes containing Reinforced Clostridial Medium (RCM) will be inoculated from lyophilized vials or cryogenic stock cultures containing these species. The broth cultures will be incubated anaerobically at 35±2° C. for 1 to 3 days, or until sufficient growth is observed.
(§5) The purity of each broth culture will be verified by preparing duplicate isolation streaks on Chocolate Agar with Enrichment (CAE), and incubating one plate aerobically and one anaerobically at 35±2° C.
(§6) Following incubation, initial suspensions containing approximately 10^8 CFU/mL will be prepared for each species by centrifuging the broth culture tubes, combining the resulting pellets, and resuspending them in additional broth.
(§7) Final Challenge Suspensions containing approximately 1×10^6 CFU/mL of each microorganism strain will be prepared by transferring aliquots of the 10^8 CFU/mL initial suspensions into separate containers containing a volume of the appropriate broth media sufficient to the needs of testing.
(§8) On each day of testing, the Test Material will be diluted (v/v) using the appropriate broth media to produce an intermediate solution containing […] of Cannabidiol.
(§9) A series of 1:2 (v/v) dilutions of intermediate Test Material solution will be prepared using the appropriate broth media, to produce active concentrations of 100 μg/mL, 50 μg/mL, 25 μg/mL, 12.5 μg/mL, 6.25 μg/mL, 3.125 μg/mL, 1.562 μg/mL, 0.781 μg/mL, 0.390 μg/mL, and 0.195 μg/mL.
(§10) A 1.0 mL aliquot of the intermediate Test Material solution (100 μg/mL), and 1.0 mL aliquots of each of the 9 test material dilutions prepared will be transferred to separate sterile test tubes. For each challenge microorganism, three sets of test tubes will be prepared for the Test Material.
(§11) A 1.0 mL aliquot of a challenge suspension containing approximately 1×10^6 CFU/mL will be dispensed into each dilution tube in each series.
(§12) Following inoculation, final active Test Material concentrations of 50 μg/mL, 25 μg/mL, 12.5 μg/mL, 6.25 μg/mL, 3.125 ug/ml, 1.562 μg/mL, 0.781 μg/mL, 0.390 ug/ml, 0.195 μg/mL and 0.0976 μg/mL will be produced.
(§13) Each dilution tube will contain approximately 5×10^5 CFU/mL of the challenge microorganism.
Positive Control Tubes (Growth Controls) containing a 1.0 mL aliquot of the appropriate broth media, and a 1.0 mL aliquot of challenge suspension will be prepared using each microorganism strain.
Negative Control Tubes (Sterility Controls; no microbial inoculation) of each broth media will be prepared.
Following incubation, the tubes will be examined for growth of the challenge microorganism, as determined visually on the basis of turbidity.

[1] = system: Propionibacterium acnes Erythromycin Resistant Clinical Isolates; assay: MIC, Macrodilution Broth Method, Erythromycin resistant P. acnes clinical isolates; settings: for MIC: Cutibacterium acnes, read-out: Minimum Inhibitory Concentration (MIC); for Minimum Inhibitory Concentration (MIC): Erythromycin resistant P. acnes clinical isolate BSLI #281014Pa6
Source text: as §1, §2, §3, §4, §5, §6, §7, §8
(§14) A series of 1:2 (v/v) dilutions of intermediate Test Material solution will be prepared using the appropriate broth media, to produce active concentrations of 100 μg/mL, 50 μg/mL, 25 μg/mL, 12.5 μg/mL, 6.25 μg/mL, 3.125 μg/mL, 1.562 μg/mL, 0.781 μg/mL, 0.390 μg/mL, and 0.195 μg/mL. […]

[2] = system: Propionibacterium acnes Tetracycline Resistant Clinical Isolates; assay: microbe, parasite or virus in culture; settings: Cutibacterium acnes
Source text: as §1, §2, §3, §4, §5, §6, §7, §8, §14

[3] = system: Methicillin resistant Staphylococcus aureus; assay: microbe, parasite or virus in culture
Source text: as §1, §2, §3
2 to 4 days prior to testing, inocula from lyophilized vials or cryogenic stock cultures containing each species will be suspended in 0.9% Sodium Chloride Irrigation, USP (SCI), inoculated onto the surface of Tryptic Soy Agar (TSA) contained in Petri plates, and incubated at 35±2° C. for 24 to 48 hours, or until sufficient growth is observed.
24 to 48 hours prior to testing, growth from the agar plates previously prepared will be suspended in SCI.
The purity of each suspension will be verified by preparing isolation streaks of each culture on TSA. Aliquots of each suspension will then be spread-plated onto the surface of additional plates of TSA and incubated at 35±2° C. until sufficient growth is observed. This will produce lawns of the bacteria on the surface of the agar plates, and growth from these will be used to prepare the challenge suspensions.
Immediately prior to testing, an initial suspension of each species will be prepared in SCI by suspending the microorganisms from the solid media to achieve initial suspension concentrations of approximately 10^8 CFU/mL. The suspensions may be centrifuged, if deemed necessary, to achieve the desired concentration.
as §7, §8, §9, §10, §11, §12, §13

[4] = read-out: Minimum Inhibitory Concentration (MIC), Tetracycline resistant P. acnes clinical isolate BSLI #281014Pa2
[5] = read-out: Minimum Inhibitory Concentration (MIC), Tetracycline resistant P. acnes clinical isolate BSLI #281014Pa4

| Structure (SMILES) | MIC (Propionibacterium acnes; ATCC6919, Propionibacterium acnes ATCC #6919, anaerobic, RCM broth, read-out: Minimum Inhibitory Concentration (MIC)) | MIC (Propionibacterium acnes; ATCC6922, Propionibacterium acnes ATCC #6922, anaerobic, RCM broth, read-out: Minimum Inhibitory Concentration (MIC)) | MIC (Propionibacterium acnes; ATCC6923, Propionibacterium acnes ATCC #6923, anaerobic, RCM broth, read-out: Minimum Inhibitory Concentration (MIC)) | MIC (Propionibacterium acnes; ATCC11827, Propionibacterium acnes ATCC #11827, anaerobic, RCM broth, read-out: Minimum Inhibitory Concentration (MIC)) | MIC (Propionibacterium acnes; ATCC11828, Propionibacterium acnes ATCC #11828, anaerobic, RCM broth, read-out: Minimum Inhibitory Concentration (MIC)) | MIC (Propionibacterium acnes; ATCC51277, Propionibacterium acnes ATCC #51277, anaerobic, RCM broth, read-out: Minimum Inhibitory Concentration (MIC)) | MIC (Propionibacterium acnes; all P. acnes strains tested, including strains resistant to other antibiotics, read-out: MIC against Propionibacterium acnes (summary over all strains)) | MIC [1] | Minimum Inhibitory Concentration (MIC) [1] | MIC [2, 4] | MIC [2, 5] | MIC ([3]; ATCC33592, read-out: Minimum Inhibitory Concentration (MIC)) | MIC ([3]; ATCCBAA41, read-out: Minimum Inhibitory Concentration (MIC)) | MIC ([3]; ATCCBAA42, read-out: Minimum Inhibitory Concentration (MIC)) | MIC ([3]; ATCCBAA44, read-out: Minimum Inhibitory Concentration (MIC)) | MIC ([3]; ATCCBAA1683, read-out: Minimum Inhibitory Concentration (MIC)) | MIC ([3]; ATCCBAA2094, read-out: Minimum Inhibitory Concentration (MIC)) | MIC ([3]; ATCCBAA2313, read-out: Minimum Inhibitory Concentration (MIC)) | MIC ([3]; read-out: MIC against Staphylococcus aureus (summary over all strains)) |
| --- | --- | --- | --- | --- | --- | --- | --- | --- | --- | --- | --- | --- | --- | --- | --- | --- | --- | --- | --- |
| C=C(C)[C@@H]1CCC(C)=C[C@H]1c1c(O)cc(CCCCC)cc1O [Cannabidiol] | 3.12 µg/mL (≈ 9.94 µM) | 6.25 µg/mL (≈ 19.9 µM) | 6.25 µg/mL (≈ 19.9 µM) | 3.12 µg/mL (≈ 9.94 µM) | 6.25 µg/mL (≈ 19.9 µM) | 6.25 µg/mL (≈ 19.9 µM) | 3.12 to 6.25 µg/mL (≈ 9.94 to 19.9 µM) | 6.25 µg/mL (≈ 19.9 µM) | 6.25 µg/mL | 3.12 µg/mL (≈ 9.94 µM) | 6.25 µg/mL (≈ 19.9 µM) | 1.56 µg/mL (≈ 4.97 µM) | 1.56 µg/mL (≈ 4.97 µM) | 1.56 µg/mL (≈ 4.97 µM) | 1.56 µg/mL (≈ 4.97 µM) | 1.56 µg/mL (≈ 4.97 µM) | 1.56 µg/mL (≈ 4.97 µM) | 1.56 µg/mL (≈ 4.97 µM) | ~1.56 µg/mL (≈ 4.97 µM) |
| CC[C@H]1OC(=O)[C@H](C)[C@@H](O[C@H]2C[C@@](C)(OC)[C@@H](O)[C@H](C)O2)[C@H](C)[C@@H](O[C@@H]2O[C@H](C)C[C@H](N(C)C)[C@H]2O)[C@](C)(O)C[C@@H](C)C(=O)[C@H](C)[C@@H](O)[C@]1(C)O [Erythromycin, reference compound] | – | – | – | – | – | – | – | 2050 µg/mL (≈ 2790 µM) | 2048 µg/mL | – | – | – | – | – | – | – | – | – | – |
| CN(C)[C@@H]1C(O)=C(C(N)=O)C(=O)[C@@]2(O)C(O)=C3C(=O)c4c(O)cccc4[C@@](C)(O)[C@H]3C[C@@H]12 [Tetracycline HCl, reference compound] | – | – | – | – | – | – | – | – | – | 64 µg/mL | 128 µg/mL | – | – | – | – | – | – | – | – |

From US20200289430A1, “Antibacterial Treatments Using Cannabinoids” (priority 2017, published 2020)
